# From patent publication US8901119B2, “Peptide deformylase inhibitors” (GlaxoSmithKline Intellectual Property (No. 2) Limited, priority 2011, dated 2014)
# Like-named read-outs stand apart in the source and are kept apart here.
# Tests used:
# [1] = molecular target: T1, Streptococcus pneumoniae PDF (Streptococcus pneumoniae serotype 4, UniProt Q9F2F0); assay: PDF IC50 Assay 2 (FDH/NAD+/Diaphorase-coupled fluorescence); format: biochemical; conditions: Assay 2 conditions; read-out: IC50, S. pneumoniae PDF activity
# T1 sequence (Q9F2F0 1-203): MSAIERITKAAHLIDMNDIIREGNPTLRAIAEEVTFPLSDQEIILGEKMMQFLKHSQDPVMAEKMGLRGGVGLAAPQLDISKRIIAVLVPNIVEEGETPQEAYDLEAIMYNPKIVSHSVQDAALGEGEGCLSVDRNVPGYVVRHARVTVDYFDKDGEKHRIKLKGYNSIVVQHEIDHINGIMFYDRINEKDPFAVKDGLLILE
# Procedure: (§1) Enzymatic activity of PDF was measured using a formate dehydrogenase (FDH)/NAD+/Diaphorase-coupled Fluorescence detection assay. Once formate is released from methionine by PDF, it is oxidized by FDH, thereby reducing one molecule of NAD to NADH. Diaphorase then catalyzes the conversion of Resazurin to Resarufin using the NADH produced by the FDH reaction. The fluorescence intensity of Resarufin is monitored by excitation at 525 nm and emission at 598 nm. The reaction is assembled by first adding the NAD, f-MAS and Resazurin to each well of a 384 well plate containing 50 nl of test compounds. Reactions were initiated by adding PDF in reaction buffer containing FDH and Diaphorase. The final reaction composition for the Staphylococcus aureus PDF (SaPDF) assay was 50 mM potassium phosphate, 0.025% CHAPS pH 7.6, 0.25 units/mL FDH, 0.156 μm! Diaphorase; 0.025 mg/ml BSA; 1 mM NAD, 0.5% DMSO, 1 mM formyl-Met-Ala-Ser; 5 uM Resazurin, and 1 nM SaPDF, in 10 μL total volume. Serial dilutions of inhibitors were performed in DMSO. Reagents and assay format were identical for the Haemophilus influenzae PDF; in the Streptococcus pneumoniae PDF assays, assay composition was the same, except that […] enzyme was used. The endpoint of each reaction was chosen to ensure that all data were collected within the linear range of catalysis. IC50s were determined by fitting to the equation: % Inhibition=100/1+(IC50/[l])^s, where s is a slope factor, l is the inhibitor concentration and the IC50 is the concentration of compound that causes 50% inhibition.
# [2] = molecular target: T2, Staphylococcus aureus PDF (SaPDF) (Staphylococcus aureus, UniProt P68826); assay: as above; format: biochemical; conditions: Assay 2 conditions; read-out: IC50, S. aureus PDF activity
# T2 sequence (P68826 1-183): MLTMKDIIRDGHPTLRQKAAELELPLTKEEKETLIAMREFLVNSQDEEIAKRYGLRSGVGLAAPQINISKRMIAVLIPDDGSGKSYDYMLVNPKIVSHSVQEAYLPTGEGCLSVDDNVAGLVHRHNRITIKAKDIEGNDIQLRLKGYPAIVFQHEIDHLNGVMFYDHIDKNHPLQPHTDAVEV
# Procedure: as §1
# [3] = molecular target: T3, Haemophilus influenzae PDF (Haemophilus influenzae, UniProt P44786); assay: as above; format: biochemical
# Procedure: as §1
# [4] = molecular target: T1, Streptococcus pneumoniae PDF; assay: PDF IC50 Assay 1 (FDH-coupled, absorbance 340 nm); format: biochemical; conditions: Assay 1 conditions; read-out: IC50, S. pneumoniae PDF activity
# Procedure: (§2) Enzymatic activity of PDF was measured using a formate dehydrogenase (FDH)-coupled assay [Lazennec and Meinnel (1997) Anal. Biochem. 244, 180-182]. Once formate is released from methionine by PDF, it is oxidized by FDH thereby reducing one molecule of NAD to NADH and resulting in an increase in absorbance at 340 nm. Reactions were initiated by adding PDF to microtiter plates containing all other reaction components and were continuously monitored for 20 min at 25° C. The final reaction composition for the Staphylococcus aureus PDF (SaPDF) assay was 50 mM potassium phosphate, pH 7.6, 5 units/mL FDH, 7 mM NAD, 1% DMSO, 0.01% CHAPS, 1 nM SaPDF, and 3 mM formyl-Met-Ala-Ser in 40 μL total volume. Serial dilutions of inhibitors were performed in DMSO. Reagents and assay format were identical for Haemophilus influenzae PDF except that formyl-Met-Ala-Ser was 6 mM final. In the Streptococcus pneumoniae PDF assay, reaction conditions were similar but contained […] enzyme, 4 mM NAD and 4 mM formyl-Met-Ala-Ser. The varying formyl-Met-Ala-Ser concentrations reflect KM values for substrate using the different PDF isozymes. IC50s were determined by fitting to the equation: % Inhibition=100/1+(IC50/[l])^s, where s is a slope factor, l is the inhibitor concentration and the IC50 is the concentration of compound that causes 50% inhibition.
# [5] = molecular target: T2, Staphylococcus aureus PDF (SaPDF); assay: PDF IC50 Assay 1 (FDH-coupled, absorbance 340 nm); format: biochemical; conditions: Assay 1 conditions; read-out: IC50, S. aureus PDF activity
# Procedure: as §2
# [6] = molecular target: T3, Haemophilus influenzae PDF; assay: PDF IC50 Assay 1 (FDH-coupled, absorbance 340 nm); format: biochemical
# Procedure: as §2
# [7] = tested on: Moraxella catarrhalis 1502; assay: Antimicrobial activity assay (broth microdilution MIC); format: cell-based
# Procedure: (§3) Whole-cell antimicrobial activity was determined by broth microdilution using the Clinical and Laboratory Standards Institute (CLSI, formerly NCCLS) recommended methodology (NCCLS Document M7-A7, “Methods for Dilution Antimicrobial Susceptibility Tests for Bacteria that Grow Aerobically; Approved Standard—Seventh Edition”, 2006). Compounds were tested in serial two-fold dilutions ranging from 64 to 0.06 μg/mL against a panel of at least 11 strains. This panel consisted of the following laboratory strains: Staphylococcus aureus Oxford, Staphylococcus aureus WCUH29, Enterococcus faecalis I, Enterococcus faecalis 7 or Enterococcus faecalis X7501, Haemophilus influenzae Q1, Haemophilus influenzae NEMC1 or Haemophilus influenzae H128, Moraxella catarrhalis 1502, Streptococcus pneumoniae 1629, Streptococcus pneumoniae N1387, Streptococcus pneumoniae Ery2 and Escherichia coli 7623 or Escherichia coli 3. All compounds were also tested against Haemophilus influenzae H128 or Escherichia coli 7623 efflux minus mutants (strains in which the AcrA efflux pump had been deleted) to ascertain the extent in which the molecules were effluxed out of the bacteria. In addition, the antibacterial activity of some compounds against Streptococcus pyogenes 1307006P and Streptococcus pyogenes 1308007P was also analyzed. The minimum inhibitory concentration (MIC) was determined as the lowest concentration of compound that inhibited visible growth. A mirror reader was used to assist in determining the MIC endpoint.
# [8] = tested on: Haemophilus influenzae H128; assay: as above; format: cell-based; conditions: read-out: MIC, H. influenzae H128
# Procedure: as §3
# [9] = tested on: Streptococcus pneumoniae 1629; assay: as above; format: cell-based; conditions: read-out: MIC, S. pneumoniae 1629
# Procedure: as §3
# Enterococcus faecalis I = assay: as above; format: cell-based; conditions: read-out: MIC, E. faecalis I
# Procedure: as §3
# Escherichia coli 3 = assay: as above; format: cell-based; conditions: read-out: MIC, E. coli 3
# Procedure: as §3
# [10] = tested on: Staphylococcus aureus Oxford; assay: as above; format: cell-based; conditions: read-out: MIC, S. aureus Oxford
# Procedure: as §3
# [11] = tested on: Streptococcus pyogenes 1308007P; assay: as above; format: cell-based; conditions: read-out: MIC, S. pyogenes 1308007P
# Procedure: as §3
# [12] = tested on: Haemophilus influenzae Q1; assay: as above; format: cell-based
# Procedure: as §3
# [13] = tested on: Streptococcus pneumoniae N1387; assay: as above; format: cell-based; conditions: read-out: MIC, S. pneumoniae N1387
# Procedure: as §3
# [14] = tested on: Enterococcus faecalis X7501; assay: as above; format: cell-based; conditions: read-out: MIC, E. faecalis X7501
# Procedure: as §3
# [15] = tested on: Staphylococcus aureus WCUH29; assay: as above; format: cell-based; conditions: read-out: MIC, S. aureus WCUH29
# Procedure: as §3
# [16] = tested on: Streptococcus pneumoniae Ery2; assay: as above; format: cell-based; conditions: ERY2, read-out: MIC, S. pneumoniae ERY2
# Procedure: as §3
# [17] = Q1, broth microdilution, read-out: MIC, H. influenzae Q1
# T3 sequence (P44786 whole entry): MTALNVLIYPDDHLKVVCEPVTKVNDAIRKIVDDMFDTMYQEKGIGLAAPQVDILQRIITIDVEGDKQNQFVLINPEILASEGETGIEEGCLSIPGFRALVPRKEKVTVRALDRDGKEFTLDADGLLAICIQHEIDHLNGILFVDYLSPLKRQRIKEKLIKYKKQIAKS
Compound,IC50 [1],IC50 [2],IC50 [3],IC50 [4],IC50 [5],IC50 [6],MIC [7],MIC [8],MIC [9],MIC (Enterococcus faecalis I),MIC (Escherichia coli 3),MIC [10],MIC [11],"MIC [12, 17]",MIC [13],MIC [14],MIC [15],MIC [16],"MIC ([12]; Q1, read-out: MIC, H. influenzae Q1)"
"CCCCC[C@H](CN(O)C=O)C(=O)N1NCC[C@H]1C(=O)Nc1ccncn1 [Example 101, (3S)-2-((2R)-2-{[Formyl(hydroxy)amino]methyl}heptanoyl)-N-4-pyrimidinyl-3-pyrazolidinecarboxamide]",≤ 1 µM,≤ 1 µM,≤ 1 µM,–,–,–,–,–,–,–,–,–,–,–,–,–,–,–,–
"CCCCC[C@H](CN(O)C=O)C(=O)N1NCC[C@H]1C(=O)Nc1ccc(F)cn1 [Example 100, (3S)—N-(5-Fluoro-2-pyridinyl)-2-((2R)-2-{[formyl(hydroxy)amino]methyl}heptanoyl)-3-pyrazolidinecarboxamide]",–,–,–,≤ 1 µM,≤ 1 µM,≤ 1 µM,–,–,–,–,–,–,–,–,–,–,–,–,–
"O=CN(O)C[C@@H](CC1CCCC1)C(=O)N1NCC[C@H]1C(=O)Nc1cccc[n+]1[O-] [Example 45, (3S)-2-((2R)-3-Cyclopentyl-2-{[formyl(hydroxy)amino]methyl}propanoyl)-N-(1-oxido-2-pyridinyl)-3-pyrazolidinecarboxamide]",–,–,–,–,–,–,≤ 0.06 µg/mL,1 µg/mL,0.5 µg/mL,2 µg/mL,32 µg/mL,1 µg/mL,4 µg/mL,0.5 µg/mL,0.25 µg/mL,8 µg/mL,0.25 µg/mL,0.25 µg/mL,–
"O=CN(O)C[C@@H](CC1CCCC1)C(=O)N1NCC[C@H]1C(=O)Nc1ccc(O)cc1 [Example 123, (3S)-2-((2R)-3-Cyclopentyl-2-{[formyl(hydroxy)amino]methyl}propanoyl)-N-(4-hydroxyphenyl)-3-pyrazolidinecarboxamide]",≤ 1 µM,≤ 1 µM,≤ 1 µM,–,–,–,–,–,–,–,–,–,–,–,–,–,–,–,–
"O=CN(O)C[C@@H](CC1CCCC1)C(=O)N1N=CC[C@H]1C(=O)Nc1ccncn1 [Example 92, (5S)-1-((2R)-3-Cyclopentyl-2-{[formyl(hydroxy)amino]methyl}propanoyl)-N-4-pyrimidinyl-4,5-dihydro-1H-pyrazole-5-carboxamide]",–,–,–,–,–,–,≤ 0.06 µg/mL,0.5 µg/mL,0.5 µg/mL,1 µg/mL,16 µg/mL,0.25 µg/mL,0.5 µg/mL,0.5 µg/mL,0.125 µg/mL,1 µg/mL,0.125 µg/mL,0.25 µg/mL,–
"O=CN(O)C[C@@H](CC1CCCC1)C(=O)N1NCC[C@H]1C(=O)Nc1ncccn1 [Example 84, (3S)-2-((2R)-3-Cyclopentyl-2-{[formyl(hydroxy)amino]methyl}propanoyl)-N-2-pyrimidinyl-3-pyrazolidinecarboxamide]",≤ 1 µM,≤ 1 µM,≤ 1 µM,–,–,–,≤ 0.06 µg/mL,0.5 µg/mL,1 µg/mL,8 µg/mL,16 µg/mL,0.5 µg/mL,0.5 µg/mL,–,1 µg/mL,16 µg/mL,0.125 µg/mL,1 µg/mL,0.125 µg/mL
"CN(C)CCOc1nccc(NC(=O)[C@@H]2CCNN2C(=O)[C@H](CC2CCCC2)CN(O)C=O)n1 [Example 81, (3S)-2-((2R)-3-Cyclopentyl-2-{[formyl(hydroxy)amino]methyl}propanoyl)-N-(2-{[2-(dimethylamino)ethyl]oxy}-4-pyrimidinyl)-3-pyrazolidinecarboxamide]",≤ 1 µM,≤ 1 µM,≤ 1 µM,–,–,–,–,–,–,–,–,–,–,–,–,–,–,–,–
"CN(C)Cc1nccc(NC(=O)[C@@H]2CCNN2C(=O)[C@H](CC2CCCC2)CN(O)C=O)n1 [Example 91, (3S)-2-((2R)-3-Cyclopentyl-2-{[formyl(hydroxy)amino]methyl}propanoyl)-N-{2-[(dimethylamino)methyl]-4-pyrimidinyl}-3-pyrazolidinecarboxamide]",–,–,–,–,–,–,≤ 0.06 µg/mL,0.5 µg/mL,2 µg/mL,16 µg/mL,4 µg/mL,4 µg/mL,1 µg/mL,0.5 µg/mL,0.5 µg/mL,16 µg/mL,1 µg/mL,1 µg/mL,–
"O=CN(O)C[C@@H](CC1CCCC1)C(=O)N1NCC[C@H]1C(=O)Nc1ccncn1 [Example 59, (3S)-2-((2R)-3-Cyclopentyl-2-{[formyl(hydroxy)amino]methyl}propanoyl)-N-4-pyrimidinyl-3-pyrazolidinecarboxamide]",–,–,–,≤ 1 µM,≤ 1 µM,≤ 1 µM,≤ 0.06 µg/mL,0.5 µg/mL,1 µg/mL,2 µg/mL,16 µg/mL,0.5 µg/mL,0.25 µg/mL,0.25 µg/mL,0.5 µg/mL,1 µg/mL,≤ 0.06 µg/mL,0.25 µg/mL,–
